Selectivity and Ki data for twelve molecules are collected here from ChEMBL document CHEMBL1136776, “Aromatic reduced amide bond peptidomimetics as selective inhibitors of neuronal nitric oxide synthase” (J Med Chem, 2003).

Experiment [1] in a line: Selectivity ratio of Ki value of eNOS to nNOS.
The nature of experiment [2]: Selectivity ratio of Ki value of iNOS to nNOS.
Experiment [3] addresses Nitric oxide synthase 1 (Rattus norvegicus, UniProt P29476).
Description: Inhibitory activity against Neuronal Nitric Oxide Synthase (nNOS)
In experiment [4] the target is T1, Nitric oxide synthase 3 (Bos taurus, UniProt P29473).
T1 sequence (P29473 whole entry): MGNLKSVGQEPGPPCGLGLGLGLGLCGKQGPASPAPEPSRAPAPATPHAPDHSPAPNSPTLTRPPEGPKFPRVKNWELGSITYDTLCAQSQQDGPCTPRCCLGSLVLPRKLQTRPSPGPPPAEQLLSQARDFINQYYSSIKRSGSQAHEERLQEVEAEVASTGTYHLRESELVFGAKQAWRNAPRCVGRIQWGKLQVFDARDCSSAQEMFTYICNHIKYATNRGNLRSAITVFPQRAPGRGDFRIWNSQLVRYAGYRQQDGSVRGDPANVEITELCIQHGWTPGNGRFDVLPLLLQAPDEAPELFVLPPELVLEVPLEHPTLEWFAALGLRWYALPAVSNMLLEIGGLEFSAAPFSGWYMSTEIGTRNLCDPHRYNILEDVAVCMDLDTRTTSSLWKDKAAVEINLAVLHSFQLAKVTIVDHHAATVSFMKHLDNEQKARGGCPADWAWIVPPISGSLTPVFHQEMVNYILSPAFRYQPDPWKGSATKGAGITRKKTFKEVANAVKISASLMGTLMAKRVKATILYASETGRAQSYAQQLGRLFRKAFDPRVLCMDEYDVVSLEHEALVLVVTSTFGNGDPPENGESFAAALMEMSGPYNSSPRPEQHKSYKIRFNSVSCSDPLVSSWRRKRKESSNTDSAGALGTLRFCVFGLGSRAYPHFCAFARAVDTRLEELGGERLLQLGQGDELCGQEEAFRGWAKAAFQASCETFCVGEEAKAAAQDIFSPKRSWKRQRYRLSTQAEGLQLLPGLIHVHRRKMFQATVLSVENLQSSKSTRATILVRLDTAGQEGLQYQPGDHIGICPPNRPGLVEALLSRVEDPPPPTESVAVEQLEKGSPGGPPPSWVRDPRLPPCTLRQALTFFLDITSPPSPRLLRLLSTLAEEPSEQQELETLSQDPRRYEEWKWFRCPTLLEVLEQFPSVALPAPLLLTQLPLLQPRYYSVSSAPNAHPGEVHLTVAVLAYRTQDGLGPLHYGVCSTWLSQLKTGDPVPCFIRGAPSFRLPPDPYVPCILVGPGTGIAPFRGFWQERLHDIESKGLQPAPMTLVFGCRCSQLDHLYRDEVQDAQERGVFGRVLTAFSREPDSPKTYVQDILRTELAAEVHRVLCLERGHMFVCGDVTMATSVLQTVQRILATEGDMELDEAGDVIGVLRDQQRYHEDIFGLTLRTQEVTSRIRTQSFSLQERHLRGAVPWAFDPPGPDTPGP
Description: Inhibitory activity against endothelial nitric oxide synthase (eNOS)

Square brackets hold non-standard residues; d marks the D form. Peptide text beside a SMILES is read from it. dArg(NO2) = N=C(NCCC[C@@H](N)C(=O)O)N[N+](=O)[O-]

Chain of Nitric oxide synthase 1 (P29476 whole entry): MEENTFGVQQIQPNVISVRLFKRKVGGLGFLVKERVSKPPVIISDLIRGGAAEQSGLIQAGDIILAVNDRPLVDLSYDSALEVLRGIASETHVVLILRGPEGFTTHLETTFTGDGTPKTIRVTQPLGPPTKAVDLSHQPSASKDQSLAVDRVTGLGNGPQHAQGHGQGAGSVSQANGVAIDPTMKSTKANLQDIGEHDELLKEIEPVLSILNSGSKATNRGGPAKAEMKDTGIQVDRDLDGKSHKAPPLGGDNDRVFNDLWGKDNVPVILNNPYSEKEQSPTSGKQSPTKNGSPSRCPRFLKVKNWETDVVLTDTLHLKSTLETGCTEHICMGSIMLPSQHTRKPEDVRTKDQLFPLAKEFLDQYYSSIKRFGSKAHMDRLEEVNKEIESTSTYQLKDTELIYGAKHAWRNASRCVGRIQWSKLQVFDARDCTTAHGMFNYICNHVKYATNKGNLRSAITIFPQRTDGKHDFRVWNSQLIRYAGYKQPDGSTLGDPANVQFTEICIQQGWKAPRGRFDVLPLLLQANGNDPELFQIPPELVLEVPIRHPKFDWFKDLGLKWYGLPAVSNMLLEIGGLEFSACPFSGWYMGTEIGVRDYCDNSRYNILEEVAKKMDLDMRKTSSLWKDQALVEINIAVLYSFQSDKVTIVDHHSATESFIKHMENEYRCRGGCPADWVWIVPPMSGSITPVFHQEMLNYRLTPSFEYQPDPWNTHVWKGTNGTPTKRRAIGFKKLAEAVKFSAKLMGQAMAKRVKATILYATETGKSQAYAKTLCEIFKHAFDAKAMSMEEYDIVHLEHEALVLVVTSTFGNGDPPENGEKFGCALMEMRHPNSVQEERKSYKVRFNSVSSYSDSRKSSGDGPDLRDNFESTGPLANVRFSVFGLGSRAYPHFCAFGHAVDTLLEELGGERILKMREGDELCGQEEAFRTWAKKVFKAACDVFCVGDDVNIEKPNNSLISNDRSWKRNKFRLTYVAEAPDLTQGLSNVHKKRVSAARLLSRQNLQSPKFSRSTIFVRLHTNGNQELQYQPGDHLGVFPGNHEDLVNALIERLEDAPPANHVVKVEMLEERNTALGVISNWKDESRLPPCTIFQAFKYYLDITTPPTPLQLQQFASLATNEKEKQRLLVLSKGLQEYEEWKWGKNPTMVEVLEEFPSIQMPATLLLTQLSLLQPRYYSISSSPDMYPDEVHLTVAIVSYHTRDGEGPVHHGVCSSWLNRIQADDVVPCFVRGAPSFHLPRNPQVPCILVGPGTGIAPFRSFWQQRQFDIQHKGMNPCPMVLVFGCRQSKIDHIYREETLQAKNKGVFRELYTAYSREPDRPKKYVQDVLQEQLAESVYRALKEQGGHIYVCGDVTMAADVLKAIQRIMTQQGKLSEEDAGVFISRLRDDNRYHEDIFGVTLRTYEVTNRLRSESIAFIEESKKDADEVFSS

Consider `N/C(=N\CCC[C@H](N)CNc1ccc(N)cc1)N[N+](=O)[O-]`, for which the Selectivity in experiment [1] was found to be 51; in experiment [2], 149.

For `N/C(=N\CCC[C@H](N)CNc1cccc(N)c1)N[N+](=O)[O-]`, the Selectivity in experiment [1] was determined as 36; in experiment [2], 127.

On to `NCc1ccccc1NC[C@@H](N)CCC/N=C(\N)N[N+](=O)[O-]`, for which the Selectivity stood at 7.17 in experiment [1] and 5.28 in experiment [2].

Take `N/C(=N\CCC[C@H](N)CNCCc1ccc(N)cc1)N[N+](=O)[O-]`: the Selectivity came to 230 in experiment [1] and 458 in experiment [2]. `NCCCC[C@@H](N)C(=O)N[C@H](CCC/N=C(/N)N[N+](=O)[O-])C(N)=O` (H-[dK]-[dArg(NO2)]-NH2) registered a Ki in experiment [3] of 0.89 µM. For `COC(=O)[C@@H](CCCNC(=N)N[N+](=O)[O-])NC(=O)[C@H](N)Cc1ccccc1` (H-[dF]-[dArg(NO2)]-OMe), the Selectivity in experiment [1] is 2.5; in experiment [2], 1800. In experiment [3], this molecule yielded a Ki of 2 µM. On to `NCc1ccc(NC[C@@H](N)CCC/N=C(\N)N[N+](=O)[O-])cc1`, for which the Selectivity turned out to be 299 in experiment [1] and 245 in experiment [2].

Take `N/C(=N\CCC[C@H](N)CNCCc1ccccc1N)N[N+](=O)[O-]`: the Selectivity in experiment [1] was 22.1; in experiment [2], 135.

With `N=C(NCCC[C@H](N)CNCCc1ccccn1)N[N+](=O)[O-]`, the affinity in experiment [4] corresponds to a Ki of 123 µM. For `N/C(=N\CCC[C@H](N)CNCCc1cccc(N)c1)N[N+](=O)[O-]`, the Selectivity in experiment [1] turned out to be 35; in experiment [2], 122. The molecule `N=C(NCCC[C@H](N)CNCCc1ccncc1)N[N+](=O)[O-]` gave a Ki in experiment [4] of 193 µM. As for `N/C(=N\CCC[C@H](N)CNCc1cccnc1)N[N+](=O)[O-]`, the Selectivity is 951 in experiment [1] and 256 in experiment [2].

By Ki is commonly meant a dissociation constant, usually derived from enzyme kinetics or from competition with a known ligand. A higher Ki goes with a looser hold on the target.
